Measurements published in US20140271930A1, “NONINVASIVE METHOD FOR MEASURING METABOLITES FOR SKIN HEALTH” (priority 2013, published 2014).
Marks after values point to notes of the source that are not given here. Peptide text beside a SMILES is read from it.

Test system: scalp of dandruff and non-dandruff subjects
Test: Metabolite expression profiling (LC/MS/MS, GC/MS/MS) of scalp D-Squame tape strip extracts: non-dandruff, dandruff baseline, dandruff after 3 weeks anti-dandruff shampoo
Type: in vivo, human
Settings: for reduction / decrease of metabolite level vs dandruff baseline: after three weeks ZPT shampoo; for decrease of metabolite level vs dandruff baseline: after three weeks selenium sulfide shampoo; for Fold Change Wk 3 Sel vs Dandruff Baseline / Fold Change Wk 3 ZPT vs Dandruff Baseline / Fold Change Wk 3 ZPT vs Non-Dan Baseline / Fold Change Wk 3 Sel vs Non-Dan Baseline: metabolite level in scalp tape strips; for Fold Change Wk 3 Sel vs Dandruff Baseline / Fold Change Wk 3 ZPT vs Dandruff Baseline: standardized to soluble protein; for Fold Change Wk 3 Sel vs Dandruff Baseline: dandruff subjects after 3 weeks 1% selenium sulfide shampoo vs own baseline; for Fold Change Wk 3 ZPT vs Dandruff Baseline: dandruff subjects after 3 weeks 1% zinc pyrithione shampoo vs own baseline; for Fold Change Wk 3 ZPT vs Non-Dan Baseline: dandruff subjects after 3 weeks 1% ZPT shampoo vs non-dandruff subjects; for Fold Change Wk 3 Sel vs Non-Dan Baseline: dandruff subjects after 3 weeks 1% selenium sulfide shampoo vs non-dandruff subjects
Excerpt: In an embodiment, the use of an adhesive device can be used to achieve such sampling. In preparation for such a sampling study for a dandruff sampling, at a baseline visit, a qualified screening grader will complete adherent scalp flaking score (ASFS) grading for each subject and the highest flaking octant will be identified for tape strip sampling. The highest flaking octant will be sampled at baseline and at various time points during and after treatment with product. Tape strips samples will be collected from each subject at each time point (e.g., baseline and week 3).
The tape strip sampling procedure is repeated additional times, as needed, at the same site placing each D-Squame® tape disc on top of the prior sampled area. The D-Squame® tapes after sample collection are placed into the appropriately labeled wells in a labeled plate.
Following the sampling, an extraction and quantitation procedure is conducted. In an embodiment of the present invention, quantitation of small molecules from extracts of D-Squame® Tape Samples can be conducted via analysis by either LC/MS/MS or GC/MS/MS. In this embodiment of the present invention, the sample extraction in preparation for Metabolite expression profiling technology was performed.
The D-Squame® tape sample plates are removed from −80° C. freezer where they are stored following sample collection, and placed on dry ice. The tape strips are inserted into pre-labeled polypropylene collection tubes, adhesive side facing inward. Extraction buffer containing methanol and water is added to each collection tube and then extracted on ice using sonication for 15 min. If necessary, additional tapes are placed in the collection tube containing the extract solution and the extraction process is repeated as a means of concentrating the sample. Each extract solution is isolated from the tape strip and an aliquot of each sample is placed into a pre-labeled polypropylene collection tubes and frozen at −80° C. for metabolite expression profiling analysis. A separate aliquot is specified for soluble protein analysis using a BCA™ Protein Assay Kit. For this analysis, the aliquot consisting of methanol and water is taken to dryness under a gentle stream of nitrogen. The sample is resuspended in an appropriate aqueous buffer (e.g., PBS/SDS (1× PBS+0.2% SDS) and analyzed for soluble protein.
The extracts are analyzed by GC/MS/MS and LC/MS/MS in positive and negative ion mode. Chromatographic separation followed by full scan mass spectra and MS/MS spectra is carried out to record and quantify all detectable ions present in the samples. Metabolites with known chemical structure can be identified by matching the ions' chromatographic retention index and mass spectra fragmentation signatures with reference library entries created from authentic standard metabolites under the identical analytical procedure as the experimental samples. Welch's Two Sample t-tests and matched-pair t-tests are used to analyze the data. […] The statistical analyses are performed on natural log-transformed data to reduce the effect of any potential outliers in the data. Welch's Two Sample t-test comparisons are made between the means of each biochemical from the various groups listed at the top of the tables and are calculated using either or both of the statistical analysis software programs: Array Studio (Omicsoft, Inc) or “R” from the Free Software Foundation, Inc.
Subjects are evaluated by a qualified grader to establish their scalp status. Dandruff subjects are identified by their level of visible flaking as assessed by a qualified grader. Non-dandruff healthy scalp subjects are evaluated at baseline to establish normalized levels of each biomarker. In this study, there are 60 non-dandruff subjects that are evaluated at baseline. […] They are evaluated at baseline, and after 3 weeks of product usage.

[1] = dandruff subjects after 3 weeks treatment with Sel shampoo, metabolite level in scalp tape strip extract
[2] = dandruff subjects after 3 weeks treatment with ZPT shampoo, metabolite level in scalp tape strip extract
[3] = relative metabolite level in scalp tape strips, dandruff subjects after 3 weeks 1% ZPT shampoo
[4] = relative metabolite level in scalp tape strips, dandruff subjects after 3 weeks 1% selenium sulfide shampoo

Row | Compound | Mean Values WEEK 3 TRT Sel [1] | Mean Values WEEK 3 TRT ZPT [2] | reduction / decrease of metabolite level vs dandruff baseline | decrease of metabolite level vs dandruff baseline | Fold Change Wk 3 Sel vs Dandruff Baseline | Fold Change Wk 3 Sel vs Dandruff Baseline (listed as 13-HODE+9-HODE) | Fold Change Wk 3 ZPT vs Dandruff Baseline | Fold Change Wk 3 ZPT vs Dandruff Baseline (listed as 13-HODE+9-HODE) | Fold Change Wk 3 ZPT vs Non-Dan Baseline | Fold Change Wk 3 Sel vs Non-Dan Baseline | Mean Values WEEK 3 TRT ZPT [3] | Mean Values WEEK 3 TRT Sel [4]
1 | CCCCCCCCCCCCCCCCC(=O)OCC(O)CO (stereo not drawn) | 0.638 | 1.1274 | – | – | – | – | – | – | – | – | – | –
2 | 13- and 9-hydroxyoctadecadienoic acid [13-HODE + 9-HODE] | 0.4182 | 0.4413 | 74% | 66% | 0.34* fold | 0.34 fold | 0.26*** fold | 0.26 fold | 0.5*** fold | 0.48* fold | – | –
3 | CCCCCCCCCCCCCCC(O)C(=O)O (stereo not drawn) [2-hydroxypalmitate] | 0.6696 | 0.8231 | – | – | 0.57* fold | – | 1.04 fold | – | 0.6* fold | 0.49* fold | – | –
4 | O=C(O)C(O)Cc1ccc(O)cc1 (stereo not drawn) [3-(4-hydroxyphenyl)lactate] | 0.7878 | 0.7551 | – | – | 0.44* fold | – | 0.7*** fold | – | 0.8 fold | 0.84 fold | – | –
5 | CC(C)CCC[C@@H](C)[C@H]1CC[C@H]2[C@@H]3[C@H](O)C=C4C[C@@H](O)CC[C@]4(C)[C@H]3CC[C@]12C [7-alpha-hydroxycholesterol] | 0.9662 | 0.959 | – | – | – | – | – | – | – | – | – | –
6 | CCCCCCC=CCCCCCCCCC(=O)O [10-heptadecenoate (17:1n7), 10-heptadecenoate] | 0.4139 | 0.7411 | – | – | 0.33* fold | – | 0.67*** fold | – | 0.52*** fold | 0.29* fold | – | –
7 | CCCCCCCCC=CCCCCCCCCC(=O)O [10-nonadecenoate (19:1n9), 10-nonadecenoate] | 0.1901 | 0.4088 | – | – | 0.14* fold | – | 0.31* fold | – | 0.38* fold | 0.17* fold | – | –
8 | CC(C)CCCCCCCCCCCCCC(=O)O [15-methylpalmitate] | 0.3813 | 0.485 | – | – | 0.31* fold | – | 0.4* fold | – | 0.35* fold | 0.27* fold | – | –
9 | CC(C)CCCCCCCCCCCCCCCC(=O)O [17-methylstearate] | 0.273 | 0.4446 | – | – | 0.21* fold | – | 0.36* fold | – | 0.35* fold | 0.22* fold | – | –
10 | OC[C@@H](O)C(O)[C@H](O)CO [Arabitol] | – | – | – | – | 0.73 fold | – | 0.61* fold | – | 0.65 fold | 1.07 fold | – | –
11 | O=C(O)c1ccccc1 [Benzoate] | – | – | – | – | 7.26**** fold | – | 2.02**** fold | – | 2.16**** fold | 4.26**** fold | – | –
12 | NCCO [Ethanolamine] | 1.7285 | 0.976 | – | – | 1.63**** fold | – | 1.08 fold | – | 2.53**** fold | 4.49** fold | – | –
13 | O=C(O)/C=C/C(=O)O [Fumarate] | – | – | – | – | 0.37*** fold | – | 0.53 fold | – | 0.68 fold | 0.76 fold | – | –
14 | NCCCC(=O)O [Gamma-aminobutyrate (GABA), Gamma-aminobutyrate] | – | – | – | – | – | – | – | – | – | – | 0.1343 | 0.1888
15 | N[C@@H](CCC(=O)N[C@@H](CCC(=O)O)C(=O)O)C(=O)O [Gamma-glutamylglutamate] | – | – | – | – | 0.95 fold | – | 1.89** fold | – | 2.09** fold | 1.11 fold | 1.7984 | 0.9586
16 | N[C@@H](CCC(=O)O)C(=O)O [Glutamate] | – | – | – | – | – | – | – | – | – | – | 0.7627 | 1.0169
17 | NCC(=O)O [Glycine] | – | – | – | – | – | – | – | – | – | – | 0.7968 | 0.8645
18 | CC(C)CCC[C@@H](C)[C@H]1CC[C@H]2C3=CC[C@H]4C[C@@H](O)CC[C@]4(C)[C@H]3CC[C@]12C [Lathosterol] | 0.9469 | 0.7479 | – | – | – | – | – | – | – | – | – | –
19 | CC(C)C[C@H](N)C(=O)N[C@@H](CCC(=O)O)C(=O)O [Leucylglutamate] (H-Leu-Glu-OH) | 0.9581 | 0.874 | – | – | 0.81* fold | – | 1.13 fold | – | 0.93 fold | 1.02 fold | – | –
20 | CCCC/C=C\CCCCCCCC(=O)O [Myristoleate (14:1n5), Myristoleate] | 0.6261 | 0.8341 | – | – | 0.53*** fold | – | 0.8*** fold | – | 0.6* fold | 0.45* fold | – | –
21 | Cn1cc(C(N)=O)ccc1=O [N1-Methyl-2-pyridone-5-carboxamide] | 0.8271 | 1.1768 | – | – | 0.89 fold | – | 1.57 fold | – | 0.76 fold | 0.54* fold | – | –
22 | CCCCCC/C=C\CCCCCCCC(=O)O [Palmitoleate (16:1n7), Palmitoleate] | 0.6347 | 0.8507 | – | – | 0.55* fold | – | 0.83* fold | – | 0.58* fold | 0.43* fold | – | –
23 | CCCCCCCCCCCCCCCCCC(=O)NCCO [Stearoyl ethanolamide] | 2.6645 | 2.3466 | – | – | 5.03** fold | – | 2.94 fold | – | 3.88** fold | 4.41** fold | – | –
24 | NC(N)=O [Urea] | 2.5539 | 2.6469 | – | – | 2.81**** fold | – | 4.13 fold | – | 3.75 fold | 3.62** fold | – | –
25 | O=c1[nH]c(=O)c2[nH]cnc2[nH]1 [Xanthine] | – | – | 84% | 85% | – | – | – | – | – | – | – | –
